The text below walks through data of patent publication US7307102B2, “Method of preventing or treating estrogen-dependent diseases and disorders” (Duke University, priority 1997, dated 2007).

Test [1] deals with T1, wild-type human estrogen receptor (ERwt) (Homo sapiens, UniProt P03372).
T1 construct: expressed in transfected cells; host or cells: HepG2
T1 sequence (P03372 1-595): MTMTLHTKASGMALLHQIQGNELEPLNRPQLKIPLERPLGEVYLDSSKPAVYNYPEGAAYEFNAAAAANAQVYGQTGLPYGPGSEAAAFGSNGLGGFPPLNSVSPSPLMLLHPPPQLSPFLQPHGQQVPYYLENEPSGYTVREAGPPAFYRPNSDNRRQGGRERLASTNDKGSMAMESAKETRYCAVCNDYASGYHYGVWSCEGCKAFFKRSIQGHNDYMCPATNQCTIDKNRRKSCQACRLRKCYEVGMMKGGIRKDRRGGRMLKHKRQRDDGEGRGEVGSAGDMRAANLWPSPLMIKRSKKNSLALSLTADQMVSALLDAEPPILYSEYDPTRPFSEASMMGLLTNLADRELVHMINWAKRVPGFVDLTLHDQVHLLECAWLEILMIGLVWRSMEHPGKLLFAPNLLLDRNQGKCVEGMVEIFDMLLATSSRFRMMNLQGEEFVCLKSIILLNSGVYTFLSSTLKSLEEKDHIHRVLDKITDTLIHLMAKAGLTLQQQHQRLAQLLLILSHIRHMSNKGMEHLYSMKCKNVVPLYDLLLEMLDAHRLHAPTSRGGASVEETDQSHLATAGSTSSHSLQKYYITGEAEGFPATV
Description: C3 promoter-luciferase cotransfection assay in HepG2 cells, ERwt. It counts as cell-based. An excerpt:
FIGS. 1A and 1B. […] The human C3 promoter (−1807 to +58) fused to the firefly luciferase reporter gene was transfected along with an expression plasmid containing (FIG. 1A) the wild-type human estrogen receptor (ERwt), or (FIG. 1B) a mutated ER in which the AF-2 function had been disrupted (ER-TAFl) into HepG2 cells and tested for transcriptional activation in the presence of increasing concentrations of ER-modulator as indicated. Transfections were normalized for efficiency and cell number by cotransfecting an expression plasmid containing β-galactosidase. The normalized response was obtained by dividing light units by the activity of β-galactosidase as measured in an enzymatic assay. Triplicate transfections were performed. The data shown are representative of multiple experiments performed under similar conditions.
FIGS. 2A-2C. […] FIG. 2A. […] FIG. 2B. […] FIG. 2C. […] Transfections were normalized for efficiency and cell number by cotransfecting an expression plasmid containing β-galactosidase. The normalized response was obtained by dividing light units by the activity of β-galactosidase as measured in an enzymatic assay. Representative assays are shown in which triplicate transfections were performed. Error bars represent the standard error of the mean (SEM).
HepG2 cells were maintained in Modified Eagles Medium (MEM) (Life Technologies, Grand Island, N.Y.) plus 10% Fetal Calf Serum (FCS) (Life Technologies). Cells were plated in 24 well plates (coated with gelatin) 24 hours prior to transfection. DNA was introduced into the cells using Lipofectin (Life Technologies). Briefly, triplicate transfections were performed using 3 μg of total DNA. For standard transfections, 500 ng of pCMV-β-Gal (normalization vector), 1500 ng reporter (variable) and 1000 ng receptor (pRST7-hER (Dana et al, Mol. Endocrinol. 8:1193-1207 (1994)) were used for each triplicate. Incubation of the cells with Lipofectin proceeded for 3 hrs, at which time media was removed, cells were washed with PBS and then induced with the appropriate hormone diluted in phenol red-free media containing 10% charcoal stripped CS (Cyclone Inc.). Incubation with hormone continued for 48 hrs, after which cells were lysed and assayed for luciferase and β-galactosidase activity as previously described (Norris et al, JBC 270:22777-22782 (1995)).
A series of in vitro screens have been developed that permit the classification of ER-modulators into four mechanistically distinct groups (Tzukerman et al, Mol. Endocrinol. 8:21-30 (1994)). […] Using these assays, it has been possible to derive “fingerprints” of known ER-modulators (McDonnell et al, Mol. Endocrinol. 9:659-669 (1995)).
Subsequently, the transfected cells were assayed for luceriferase and β-galactosidase activity. Each data point in this experiment represents the average of triplicate determinations of the transcriptional activity under given experimental conditions.

The next test has as its system MCF-7/LCC2. Description: LCC2 study, MCF-7/LCC2 tumors in nude mice. It counts as in vivo, mouse. Conditions: after 8 weeks, 1.0 mg every three days, FIG. 11. The protocol:
This experiment was conducted to determine the ability of GW5638 to retard the growth of this cell line in nude mice relative to control or tamoxifen treated tumors.
40 OVX mice were prepared to accept cells and grouped as follows:
Control animals received nothing and groups 3 and 4 received 0.1 ml injections in corn oil every three days. Tumors were measured Q3 days with calipers, and the area calculated as follows: Area=½×w/2×π.

In the case of `CC/C(=C(\c1ccccc1)c1ccc(/C=C/C(=O)O)cc1)c1ccccc1` [GW5638], the “reversal of the inverse agonist activity of ICI182,780” value in test [1] (C3 promoter, co-addition with ICI182,780, FIG. 2C) is reported as “partially reversed”. In addition, in test [1] (ERwt, 10^−8M 17-β-estradiol or tamoxifen, FIG. 2A), the “inhibition of the agonist activity manifested by tamoxifen or estradiol” value is recorded as “inhibited”. Moreover, the “agonist / inverse agonist activity on the C3 promoter” value in test [1] (ERwt, compound alone, FIG. 1A/2A) is on record as “do not demonstrate any agonist or antagonist activity”. For the same molecule, the tumor growth result with MCF-7/LCC2 is on record as “equally inhibit growth of this tumor”.
